Results as given in article PMC3500254, “Potent Inhibition of Late Stages of Hepadnavirus Replication by a Modified Cell Penetrating Peptide” (PLoS ONE, 2012).
Read-outs that look alike come from different tables or passages of the source. Non-standard residues stand in square brackets, D forms with d. Residues, ends and D or L forms follow the SMILES beside them. *: point of attachment. Stearoyl = CCCCCCCCCCCCCCCCCC(=O)*; Palmitoyl = CCCCCCCCCCCCCCCC(=O)*; Myristoyl = CCCCCCCCCCCCCC(=O)*; Lauroyl = CCCCCCCCCCCC(=O)*; Decanoyl = CCCCCCCCCC(=O)*; Octanoyl = CCCCCCCC(=O)*

What was measured:
[1] = test system: Duck Hepatitis B Virus (DHBV)
Experimental: (§1) Infected PDH and LMH-D2 cells were treated with 2 µM of several modified cationic peptides for 5 days. Cells supernatants were collected daily and were spotted onto positively charged nylon membrane and DHBV DNA was detected by hybridization with a DHBV DNA probe labeled with ^32P, and then was quantified by PhosphorImager scanning using ImageQuant software (Molecular Dynamics) to monitor DHBV release. Relative areas under curves determined by the means of duplicate, compared to untreated cells set at 100% are represented. […] Cell viability was determined by enzymatic activity MTT assay after daily incubation with different concentrations of Deca-(Arg)8 ranking from 1 µM to 4 µM during six days. The error bars display the standard deviation of duplicates in three independent experiments.
(§2) DHBV-infected PDHs (A), and stable transfected LMH-D2 cells (B) were treated with increasing amounts of Deca-(Arg)8 ranking from 0.25 µM to 2 µM in duplicates for 6 and 4 days, respectively. Cell culture supernatants were collected daily during treatment. The kinetics of viral release in cell culture supernatants, monitored by dot-blot hybridization and quantified by PhosphorImager scanning using ImageQuant software (Molecular Dynamics) is represented on the upper panel. Relative areas under curves determined by the means of duplicate, compared to untreated cells, are represented in the lower panel. The curves are representative of at least two independent experiments.
(§3) Primary duck hepatocytes (PDH) were isolated from Pekin duck embryos as previously described. DHBV infection was performed at the same time as plating by overnight incubation (16 h) of the hepatocytes with a virus-positive duck serum (30 virus genome equivalents (vge) per cell). The previously described avian hepatoma DHBV transfected LMH-D2 cell line, [38] was grown as previously described. The stably HBV-transfected cell line HepG2.2.15 was grown as previously described. Different amounts of CatLip were added daily to the culture medium from day 1 post-seeding and cells were lyzed at the end of treatment for analysis of intracellular viral DNA, RNA, and proteins. The growth medium was harvested and changed daily. The cellular toxicity was analyzed by daily examination of cells with a light microscope and by a cell toxicity test based on the (3-(4,5-dimethylthiazol-2-yl)-2,5 diphenyl-tetrazolium-bromide (MTT) assay.
(§4) Cells supernatants were harvested daily, spotted onto positively charged nylon membrane and extracellular DHBV DNA was detected in supernatant of cells by dot blot hybridization assay using a full-length ^32P-labelled DHBV probe as described previously. For DHBV intermediate replicative forms analysis, DNA was extracted from cells and 10 µg of the total cellular DNA were subjected to electrophoresis on 1% agarose gel, followed by Southern blot analysis and hybridization with ^32P-labeled genomic DHBV probe as previously described. Viral DNA was quantified by PhosphorImager scanning using ImageQuant software (Molecular Dynamics).

[2] = test system: Duck Hepatitis B Virus (DHBV); assay: Inhibition of DHBV release in stably DHBV-transfected LMH-D2 cells (dot-blot of supernatant DHBV DNA); assay type: cell-based; conditions: concentration of CPP resulting in 50% inhibition of DHBV release, peptide added daily, PhosphorImager
Experimental: as §1, §2, §3, §4

[3] = test system: PDH; assay: MTT cell viability, PDH; assay type: cell-based, Pekin duck; conditions: daily exposure 1 µM to 4 µM for 6 days, duplicates in three independent experiments
Experimental: (§5) Figure 1 Inhibition of DHBV release in PDHs and LMH-D2 cells by modified cationic peptides and effect of Deca-(Arg)8 on cell viability. Infected PDH and LMH-D2 cells were treated with 2 µM of several modified cationic peptides for 5 days. […] Relative areas under curves determined by the means of duplicate, compared to untreated cells set at 100% are represented. The two representations show the effect of modified cationic peptides derived from (Arg)8 sequence with increasing number of arginine in the peptide (A) or with increasing number of carbon in the fatty acid chain (B). Dose-dependent effects of Deca-(Arg)8 transduction on cell viability (C). Cell viability was determined by enzymatic activity MTT assay after daily incubation with different concentrations of Deca-(Arg)8 ranking from 1 µM to 4 µM during six days. The error bars display the standard deviation of duplicates in three independent experiments. […]
(§6) Primary duck hepatocytes (PDH) were isolated from Pekin duck embryos as previously described. […] The cellular toxicity was analyzed by daily examination of cells with a light microscope and by a cell toxicity test based on the (3-(4,5-dimethylthiazol-2-yl)-2,5 diphenyl-tetrazolium-bromide (MTT) assay.

[4] = test system: LMH-D2 cells; assay type: cell-based, avian; conditions: daily exposure 1 µM to 4 µM for 6 days, duplicates in three independent experiments
Experimental: as §5, §6

[5] = test system: PDH; conditions: 24 hours at 37°C, 5% CO2, fluorescence microscopy; for FITC-labelled cells (internalization): 0.5 µM; for percentage of FITC-labelled cells: 2 µM
Experimental: Next we analyzed cellular internalization of Deca-(Arg)8-FITC and Arg8-FITC in PDH cells using fluorescence microscopy.
(A); PDHs were plated and treated with (Arg)8 (left panel) or Deca-(Arg)8 (right panel) coupled to FITC at different concentration ranking from 0.5 µM to 2 µM and cells were incubated at 37°c, 5% of CO2 for 24 hours. Cells were observed by fluorescence microscopy (Magnificationx20).

Compound	IC50 ([1]; 16 h) [nM]	IC50 [2] [nM]	also measured
N=C(N)NCCC[C@@H](NC(=O)[C@H](N)Cc1c[nH]c2ccccc12)C(=O)N[C@H](CCCNC(=N)N)C(=O)N[C@H](CCCNC(=N)N)C(=O)N[C@H](CCCNC(=N)N)C(=O)N[C@H](CCCNC(=N)N)C(=O)N[C@H](CCCNC(=N)N)C(=O)N[C@H](CCCNC(=N)N)C(=O)N[C@H](CCCNC(=N)N)C(=O)NCC(N)=O [(Arg)8] (H-[dW][dR][dR][dR][dR][dR][dR][dR][dR]G-NH2)	1800	1300	inhibition of DHBV secretion ([1]; 5-days treatment, (Arg)8 0.5 to 2 µM, compared with Deca-(Arg)8, Fig. S2 (PDH and LMH-D2; cell system not given)): 60%
CCCCCCCCCC(=O)N[C@H](Cc1c[nH]c2ccccc12)C(=O)N[C@H](CCCNC(=N)N)C(=O)N[C@H](CCCNC(=N)N)C(=O)N[C@H](CCCNC(=N)N)C(=O)N[C@H](CCCNC(=N)N)C(=O)N[C@H](CCCNC(=N)N)C(=O)N[C@H](CCCNC(=N)N)C(=O)NCC(N)=O [Deca-(Arg)6]	–	2200	IC50 ([1]; read-out: IC50 of DHBV release, PDH, DHBV-infected PDH, concentration of CPP resulting in 50% inhibition of DHBV release, peptide added daily, supernatant DHBV DNA by dot-blot, 32P probe, PhosphorImager): 1400 nM
CCCCCCCCCC(=O)N[C@H](Cc1c[nH]c2ccccc12)C(=O)N[C@H](CCCNC(=N)N)C(=O)N[C@H](CCCNC(=N)N)C(=O)N[C@H](CCCNC(=N)N)C(=O)N[C@H](CCCNC(=N)N)C(=O)N[C@H](CCCNC(=N)N)C(=O)N[C@H](CCCNC(=N)N)C(=O)N[C@H](CCCNC(=N)N)C(=O)NCC(N)=O [Deca-(Arg)7]	900	800	–
CCCCCCCCCC(=O)N[C@H](Cc1c[nH]c2ccccc12)C(=O)N[C@H](CCCNC(=N)N)C(=O)N[C@H](CCCNC(=N)N)C(=O)N[C@H](CCCNC(=N)N)C(=O)N[C@H](CCCNC(=N)N)C(=O)N[C@H](CCCNC(=N)N)C(=O)N[C@H](CCCNC(=N)N)C(=O)N[C@H](CCCNC(=N)N)C(=O)N[C@H](CCCNC(=N)N)C(=O)NCC(N)=O [Deca-(Arg)8] (Decanoyl-[dW][dR][dR][dR][dR][dR][dR][dR][dR]G-NH2)	600	300	cell viability (MTT) versus untreated cells [3]: No statistically significant difference; cell viability (MTT) versus untreated cells [4]: No statistically significant difference
CCCCCCCCCC(=O)N[C@H](Cc1c[nH]c2ccccc12)C(=O)N[C@H](CCCNC(=N)N)C(=O)N[C@H](CCCNC(=N)N)C(=O)N[C@H](CCCNC(=N)N)C(=O)N[C@H](CCCNC(=N)N)C(=O)N[C@H](CCCNC(=N)N)C(=O)N[C@H](CCCNC(=N)N)C(=O)N[C@H](CCCNC(=N)N)C(=O)N[C@H](CCCNC(=N)N)C(=O)N[C@H](CCCNC(=N)N)C(=O)NCC(N)=O [Deca-(Arg)9] (Decanoyl-[dW][dR][dR][dR][dR][dR][dR][dR][dR][dR]G-NH2)	1600	–	–
CCCCCCCCCC(=O)N[C@H](Cc1c[nH]c2ccccc12)C(=O)N[C@H](CCCNC(=N)N)C(=O)N[C@H](CCCNC(=N)N)C(=O)N[C@H](CCCNC(=N)N)C(=O)N[C@H](CCCNC(=N)N)C(=O)N[C@H](CCCNC(=N)N)C(=O)N[C@H](CCCNC(=N)N)C(=O)N[C@H](CCCNC(=N)N)C(=O)N[C@H](CCCNC(=N)N)C(=O)N[C@H](CCCNC(=N)N)C(=O)N[C@H](CCCNC(=N)N)C(=O)NCC(N)=O [Deca-(Arg)10]	1400	–	–
CCCCCCCCCC(=O)N[C@H](CCCNC(=N)N)C(=O)N[C@H](CCCNC(=N)N)C(=O)N[C@H](CCCNC(=N)N)C(=O)N[C@H](CCCNC(=N)N)C(=O)N[C@H](CCCCN)C(=O)N[C@H](CCCCN)C(=O)N[C@H](CCCCN)C(=O)N[C@H](CCCCN)C(=O)NCC(N)=O [Deca-(Arg-Lys)4–4] (Decanoyl-[dR][dR][dR][dR][dK][dK][dK][dK]G-NH2)	2300	–	–
CCCCCCCCCCCC(=O)N[C@H](Cc1c[nH]c2ccccc12)C(=O)N[C@H](CCCNC(=N)N)C(=O)N[C@H](CCCNC(=N)N)C(=O)N[C@H](CCCNC(=N)N)C(=O)N[C@H](CCCNC(=N)N)C(=O)N[C@H](CCCNC(=N)N)C(=O)N[C@H](CCCNC(=N)N)C(=O)N[C@H](CCCNC(=N)N)C(=O)N[C@H](CCCNC(=N)N)C(=O)NCC(N)=O [Dodeca-(Arg)8] (Lauroyl-[dW][dR][dR][dR][dR][dR][dR][dR][dR]G-NH2)	900	700	–
CCCCCCCCCCCCCC(=O)N[C@H](Cc1c[nH]c2ccccc12)C(=O)N[C@H](CCCNC(=N)N)C(=O)N[C@H](CCCNC(=N)N)C(=O)N[C@H](CCCNC(=N)N)C(=O)N[C@H](CCCNC(=N)N)C(=O)N[C@H](CCCNC(=N)N)C(=O)N[C@H](CCCNC(=N)N)C(=O)N[C@H](CCCNC(=N)N)C(=O)N[C@H](CCCNC(=N)N)C(=O)NCC(N)=O [Myrist-(Arg)8] (Myristoyl-[dW][dR][dR][dR][dR][dR][dR][dR][dR]G-NH2)	1200	1200	–
CCCCCCCC(=O)N[C@H](Cc1c[nH]c2ccccc12)C(=O)N[C@H](CCCNC(=N)N)C(=O)N[C@H](CCCNC(=N)N)C(=O)N[C@H](CCCNC(=N)N)C(=O)N[C@H](CCCNC(=N)N)C(=O)N[C@H](CCCNC(=N)N)C(=O)N[C@H](CCCNC(=N)N)C(=O)N[C@H](CCCNC(=N)N)C(=O)N[C@H](CCCNC(=N)N)C(=O)NCC(N)=O [Octa-(Arg)8] (Octanoyl-[dW][dR][dR][dR][dR][dR][dR][dR][dR]G-NH2)	1700	2700	–
CCCCCCCCCCCCCCCC(=O)N[C@H](Cc1c[nH]c2ccccc12)C(=O)N[C@H](CCCNC(=N)N)C(=O)N[C@H](CCCNC(=N)N)C(=O)N[C@H](CCCNC(=N)N)C(=O)N[C@H](CCCNC(=N)N)C(=O)N[C@H](CCCNC(=N)N)C(=O)N[C@H](CCCNC(=N)N)C(=O)N[C@H](CCCNC(=N)N)C(=O)N[C@H](CCCNC(=N)N)C(=O)NCC(N)=O [Palmit-(Arg)8] (Palmitoyl-[dW][dR][dR][dR][dR][dR][dR][dR][dR]G-NH2)	1800	1700	–
CCCCCCCCCCCCCCCCCC(=O)N[C@H](Cc1c[nH]c2ccccc12)C(=O)N[C@H](CCCNC(=N)N)C(=O)N[C@H](CCCNC(=N)N)C(=O)N[C@H](CCCNC(=N)N)C(=O)N[C@H](CCCNC(=N)N)C(=O)N[C@H](CCCNC(=N)N)C(=O)N[C@H](CCCNC(=N)N)C(=O)N[C@H](CCCNC(=N)N)C(=O)N[C@H](CCCNC(=N)N)C(=O)NCC(N)=O [Stear-(Arg)8] (Stearoyl-[dW][dR][dR][dR][dR][dR][dR][dR][dR]G-NH2)	1900	1800	–
CCCCCCCCCC(=O)O [decanoic acid, reference compound]	–	–	effect on DHBV secretion ([1]; 5-days treatment, decanoic acid 0.5 to 10 µM, Fig. S2 (PDH and LMH-D2)): unable to significantly decrease DHBV secretion
Decanoic acid (C10:0)-Fluoresceinyl-lysine–RRRRRRRRG-NH2 [Deca-(Arg)8-FITC]	–	–	FITC-labelled cells (internalization) [5]: a higher number of FITC-labelled cells were observable; percentage of FITC-labelled cells [5]: more than 90%
Fluoresceinyl-lysine-RRRRRRRRG-NH2 [(Arg)8-FITC]	–	–	FITC-labelled cells (internalization) [5]: remained negative; percentage of FITC-labelled cells [5]: 70%
